This experiment concerns P388 leukemia ip, CD2F1 mice, survival T/C. As to the kind of experiment: NCI In Vivo Anticancer Drug Screen. Data for tumor model P388 Leukemia (intraperitoneal) in CD2F1 (CDF1) mice. As to conditions: endpoint: median survival time, higher = longer survival. The procedure, abridged:
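Mice carrying the transplanted tumor received test compound or vehicle. Survival was recorded in each group, and the value is the treated-group measurement divided by that of the vehicle-treated control group.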

Where [1] appears, read: dose: 60.0 mg/kg/injection, schedule: Q01DX005 (ip), vehicle: saline with Tween-80.
Where [2] appears, read: dose: 120.0 mg/kg/injection, schedule: Q01DX005 (ip), vehicle: saline with Tween-80.
The mark [3] stands for this setting: dose: 240.0 mg/kg/injection, schedule: Q01DX005 (ip), vehicle: saline with Tween-80.
Setting [4] is: dose: 12.5 mg/kg/injection, schedule: Q01DX005 (ip), vehicle: Klucel (hydroxypropylcellulose) (HPC).
[5] abbreviates: dose: 25.0 mg/kg/injection, schedule: Q01DX005 (ip), vehicle: Klucel (hydroxypropylcellulose) (HPC).
The mark [6] stands for this setting: dose: 50.0 mg/kg/injection, schedule: Q01DX005 (ip), vehicle: Klucel (hydroxypropylcellulose) (HPC).
[7] abbreviates: dose: 12.5 mg/kg/injection, schedule: Q01DX009 (ip), vehicle: saline with Tween-80.
[8] abbreviates: dose: 25.0 mg/kg/injection, schedule: Q01DX009 (ip), vehicle: saline with Tween-80.
[9] abbreviates: dose: 50.0 mg/kg/injection, schedule: Q01DX009 (ip), vehicle: saline with Tween-80.
Setting [10] is: dose: 100.0 mg/kg/injection, schedule: Q04DX003 (ip), vehicle: Klucel (hydroxypropylcellulose) (HPC).
The mark [11] stands for this setting: dose: 200.0 mg/kg/injection, schedule: Q04DX003 (ip), vehicle: Klucel (hydroxypropylcellulose) (HPC).
Where [12] appears, read: dose: 100.0 mg/kg/injection, schedule: Q01DX009 (ip), vehicle: saline with Tween-80.
The mark [13] stands for this setting: dose: 200.0 mg/kg/injection, schedule: Q01DX009 (ip), vehicle: saline with Tween-80.

This is an account of results in PubChem BioAssay AID330 (DTP/NCI, 2004).

Several values for one entry are separate records, joined by “and”; a condition that tells them apart may be missing. Identical values can stand only once. Inconclusive results and toxic doses are left out.

`O=C1C(=O)c2cccnc2-c2ncccc21`: the T/C reads like this: (dose: 1.56 mg/kg/injection, schedule: Q01DX005 (ip), vehicle: Klucel (hydroxypropylcellulose) (HPC)) 115 % of control; (dose: 3.12 mg/kg/injection, schedule: Q01DX005 (ip), vehicle: Klucel (hydroxypropylcellulose) (HPC)) 106 % of control; (dose: 6.25 mg/kg/injection, schedule: Q01DX005 (ip), vehicle: Klucel (hydroxypropylcellulose) (HPC)) 115 % of control.

With `CC(C)(C)N=C(NC#N)Nc1cccnc1Cl`, the T/C reads like this: (dose: 100.0 mg/kg/injection, schedule: Q04DX002 (ip), vehicle: saline with Tween-80) 103 % of control; (dose: 200.0 mg/kg/injection, schedule: Q04DX002 (ip), vehicle: saline with Tween-80) 94 % of control; (dose: 400.0 mg/kg/injection, schedule: Q04DX002 (ip), vehicle: saline with Tween-80) 92 % of control.

`Cc1c(-c2ccc(Cl)cc2)n[nH]c1-c1[nH]nc(-c2ccc(Cl)cc2)c1C`: the T/C is 105 % of control under setting [1], 105 % of control under setting [2] and 94 % of control under setting [3].

With `COc1ccc(N2C(=O)c3ccc4c5ccc6c7c(ccc(c8ccc(c3c48)C2=O)c75)C(=O)NC6=O)cc1`, the T/C reads like this: under setting [4], 89 % of control; under setting [5], 90 % of control; under setting [6], 90 % of control; (dose: 100.0 mg/kg/injection, schedule: Q01DX005 (ip), vehicle: Klucel (hydroxypropylcellulose) (HPC)) 90 % of control; (dose: 200.0 mg/kg/injection, schedule: Q01DX005 (ip), vehicle: Klucel (hydroxypropylcellulose) (HPC)) 89 % of control.

Turning to `CC12CCCCC1=Nc1ccc3ccccc3c12` (stereo not drawn), the T/C is 92 % of control under setting [7], 90 % of control under setting [8] and 92 % of control under setting [9].

On to `Nc1cccc2c1C(=O)c1ccccc1C2=O`, for which the T/C (dose: 50.0 mg/kg/injection, schedule: Q04DX003 (ip), vehicle: Klucel (hydroxypropylcellulose) (HPC)) is 100 % of control; the T/C under setting [10] was 101 % of control; the T/C under setting [11] was 91 % of control; the T/C (dose: 400.0 mg/kg/injection, schedule: Q04DX003 (ip), vehicle: Klucel (hydroxypropylcellulose) (HPC)) is 92 % of control.

As to `O=S(=O)(Nc1cc(C(F)(F)F)ccc1Cl)c1ccc(F)cc1`, the T/C under setting [1] was 104 % of control, the T/C under setting [2] was 96 % of control and the T/C under setting [3] was 100 % of control.

Take `O=C(NC(=O)c1c(F)cccc1F)Nc1nc2ccccc2s1`: the T/C reads like this: (dose: 6.25 mg/kg/injection, schedule: Q01DX009 (ip), vehicle: saline with Tween-80) 113 % of control; under setting [7], 100 % of control; under setting [8], 105 % of control.

Take `CC(C(=O)O)C(C)(C)c1ccccc1` (stereo not drawn): the T/C is 100 % of control (dose: 100.0 mg/kg/injection, schedule: Q01DX001 (ip), vehicle: saline with Tween-80); 99 % of control (dose: 200.0 mg/kg/injection, schedule: Q01DX001 (ip), vehicle: saline with Tween-80); 105 % of control (dose: 400.0 mg/kg/injection, schedule: Q01DX001 (ip), vehicle: saline with Tween-80).

For `NC(CC(=O)O)C(F)(F)F` (stereo not drawn), the T/C was 99 % of control under setting [1], 100 % of control under setting [2] and 102 % of control under setting [3].

Consider `C1=CC=CCC=C1`, for which the T/C under setting [7] was 120 % of control.

With `COc1ccc(C(C)c2cc3c(cc2OCCO)OCO3)cc1OC` (stereo not drawn), the T/C is, setting by setting: (dose: 50.0 mg/kg/injection, schedule: Q01DX005 (ip), vehicle: distilled water + Tween-80) 97 % of control; (dose: 100.0 mg/kg/injection, schedule: Q01DX005 (ip), vehicle: distilled water + Tween-80) 93 % of control; (dose: 200.0 mg/kg/injection, schedule: Q01DX005 (ip), vehicle: distilled water + Tween-80) 97 % of control.

With `CC(C)(Cc1nc2ccccc2[nH]1)Cc1nc2ccccc2[nH]1`, the T/C is, setting by setting: (dose: 7.5 mg/kg/injection, schedule: Q01DX005 (ip), vehicle: Klucel (hydroxypropylcellulose) (HPC)) 99 % of control; (dose: 15.0 mg/kg/injection, schedule: Q01DX005 (ip), vehicle: Klucel (hydroxypropylcellulose) (HPC)) 94 % of control; (dose: 30.0 mg/kg/injection, schedule: Q01DX005 (ip), vehicle: Klucel (hydroxypropylcellulose) (HPC)) 91 % of control; (dose: 60.0 mg/kg/injection, schedule: Q01DX005 (ip), vehicle: Klucel (hydroxypropylcellulose) (HPC)) 90 % of control.

On to `COc1cccc2c1C(=O)c1c(O)c3c(c(O)c1C2=O)CC(O)(/C(C)=N/NC(=O)CCCC(=O)N/N=C(\C)C1(O)Cc2c(O)c4c(c(O)c2C(OC2CC(N)C(O)C(C)O2)C1)C(=O)c1c(OC)cccc1C4=O)CC3OC1CC(N)C(O)C(C)O1` (stereo not drawn), for which the T/C (dose: 0.2 mg/kg/injection, schedule: Q01DX009 (ip), vehicle: water) is 105 % of control; the T/C (dose: 0.39 mg/kg/injection, schedule: Q01DX009 (ip), vehicle: water) was 90 % of control; the T/C (dose: 0.78 mg/kg/injection, schedule: Q01DX009 (ip), vehicle: water) was 150 % of control; the T/C (dose: 1.56 mg/kg/injection, schedule: Q01DX009 (ip), vehicle: water) is 188 % of control; the T/C (dose: 3.13 mg/kg/injection, schedule: Q01DX009 (ip), vehicle: water) was 167 % of control.

In the case of `c1ccc(P(CCP(c2ccccc2)c2ccccc2)c2ccccc2)cc1`, the T/C (dose: 25.0 mg/kg/injection, schedule: Q04DX003 (ip), vehicle: Klucel (hydroxypropylcellulose) (HPC)) was 117 % of control; the T/C under setting [10] is 153 % of control; the T/C under setting [11] was 161 % of control.

Consider `O=C(O)Cc1ccc(-c2cn3c(n2)sc2ccccc23)cc1`, for which the T/C runs as follows: (dose: 50.0 mg/kg/injection, schedule: Q01DX009 (ip), vehicle: saline) 108 % of control; (dose: 100.0 mg/kg/injection, schedule: Q01DX009 (ip), vehicle: saline) 107 % of control; (dose: 200.0 mg/kg/injection, schedule: Q01DX009 (ip), vehicle: saline) 112 % of control.

For `NC1=C(O)C(=O)C(/C=C/c2ccccc2)O1` (stereo not drawn), the T/C was 90 % of control under setting [1], 90 % of control under setting [2] and 87 % of control under setting [3].

Regarding `CCOC(=O)c1cnc2cc(C(F)(F)F)ccc2c1N=[N+]=[N-]`, the T/C was 99 % of control under setting [1], 96 % of control under setting [2] and 96 % of control under setting [3].

As to `CCCCCCC(=O)/C=C/c1cccc(OCOC)c1`, the T/C is, setting by setting: under setting [9], 87 % of control; under setting [12], 113 % of control; under setting [13], 103 % of control.

Turning to `COC(=O)/C=C1\Sc2ccccc2NC1=O`, the T/C runs as follows: under setting [9], 96 % of control; under setting [12], 96 % of control; under setting [13], 94 % of control.

Regarding `S=C(Nc1ccc(Br)cc1)SCc1ccc(Cl)cc1`, the T/C was 97 % of control (dose: 50.0 mg/kg/injection, schedule: Q01DX009 (ip), vehicle: suspension in saline); 105 % of control (dose: 100.0 mg/kg/injection, schedule: Q01DX009 (ip), vehicle: suspension in saline); 119 % of control (dose: 200.0 mg/kg/injection, schedule: Q01DX009 (ip), vehicle: suspension in saline).

Regarding `COC(=O)Cc1nc2c(=O)[nH]c(N)nc2[nH]c1=O`, the T/C under setting [4] was 95 % of control; the T/C under setting [5] was 96 % of control; the T/C under setting [6] is 102 % of control and 104 % of control.

In the case of `O=C(O)C(O)(C1CCCCC1)C1CCC(C2CCCCC2)CC1C1CCCCC1` (stereo not drawn), the T/C was 98 % of control (dose: 50.0 mg/kg/injection, schedule: Q01DX005 (ip), vehicle: saline with Tween-80); 102 % of control (dose: 100.0 mg/kg/injection, schedule: Q01DX005 (ip), vehicle: saline with Tween-80); 100 % of control (dose: 200.0 mg/kg/injection, schedule: Q01DX005 (ip), vehicle: saline with Tween-80).
